Results: patent publication US9657002B2, “Oxindole derivatives carrying an oxetane substituent and use thereof for treating vassopressin-related diseases” (AbbVie Deutschland GmbH & Co. KG, priority 2013, dated 2017)
Like-named read-outs stand apart in the source and are kept apart here.

Key:
[1] = molecular target: T1, human vasopressin V1b receptor (Homo sapiens, UniProt P47901); test: biochemical
T1 sequence (P47901 1-424): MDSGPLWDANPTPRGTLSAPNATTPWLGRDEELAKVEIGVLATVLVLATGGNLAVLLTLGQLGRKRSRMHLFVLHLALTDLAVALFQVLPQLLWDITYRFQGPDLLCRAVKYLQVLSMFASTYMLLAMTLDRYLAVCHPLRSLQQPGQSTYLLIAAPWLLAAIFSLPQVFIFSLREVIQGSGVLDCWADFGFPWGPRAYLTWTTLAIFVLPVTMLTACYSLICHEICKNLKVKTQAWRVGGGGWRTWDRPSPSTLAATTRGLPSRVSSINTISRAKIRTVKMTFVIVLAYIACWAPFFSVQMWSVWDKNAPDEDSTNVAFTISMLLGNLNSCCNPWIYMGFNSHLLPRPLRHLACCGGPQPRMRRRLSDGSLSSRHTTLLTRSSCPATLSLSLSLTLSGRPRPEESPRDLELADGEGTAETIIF

[2] = molecular target: human vasopressin V1a receptor (Homo sapiens, UniProt P37288); test: Vasopressin V1a receptor binding assay; settings: selectivity quotient, human V1a vs human V1b
[3] = molecular target: T1, human vasopressin V1b receptor; settings: read-out: Ki(h-V1b)*, CHO-K1 membranes, 3H-AVP displacement

Chain of human vasopressin V1a receptor (P37288 whole entry): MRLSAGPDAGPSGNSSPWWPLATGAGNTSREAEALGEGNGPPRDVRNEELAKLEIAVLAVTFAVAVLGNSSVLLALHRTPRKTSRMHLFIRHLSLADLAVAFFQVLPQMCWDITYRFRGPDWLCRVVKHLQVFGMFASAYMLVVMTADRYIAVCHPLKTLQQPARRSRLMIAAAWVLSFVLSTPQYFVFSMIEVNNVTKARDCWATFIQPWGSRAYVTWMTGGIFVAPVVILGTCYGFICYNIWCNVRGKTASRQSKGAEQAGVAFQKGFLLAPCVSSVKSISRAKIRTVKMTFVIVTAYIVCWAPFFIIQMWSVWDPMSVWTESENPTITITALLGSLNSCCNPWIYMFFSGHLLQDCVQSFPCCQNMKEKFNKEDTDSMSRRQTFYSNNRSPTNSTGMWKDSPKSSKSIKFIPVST

| Compound | Ki [1] [nM] | Ki(h-V1a)/Ki(h-V1b) [2] | Ki [3] [nM] |
| --- | --- | --- | --- |
| (S)—N-(5-cyano-1-((2,4-dimethoxyphenyl)sulfonyl)-3-(2-ethoxypyridin-3-yl)-2-oxoindolin-3-yl)-4-(4-(oxetan-3-yl)piperazin-1-yl)piperidine-1-carboxamide [Example 2] |  | ++ (25-75) | 1 to 10 |
| COc1ncccc1[C@]1(NC(=O)N2CCC(C3CCN(C4COC4)CC3)CC2)C(=O)N(S(=O)(=O)c2ccccc2)c2ccc(C#N)cc21 [Example 50, (S)—N-(5-cyano-3-(2-methoxypyridin-3-yl)-2-oxo-1-(phenylsulfonyl)indolin-3-yl)-1′-(oxetan-3-yl)-[4,4′-bipiperidine]-1-carboxamide] | 10 to 100 | ++ (25-75) |  |
| CCOc1ncccc1[C@]1(NC(=O)N2CCN(C3CCN(C4COC4)CC3)CC2)C(=O)N(S(=O)(=O)c2ccc(OC)cc2)c2ccc(C#N)cc21 [Example 24, N-[(3S)-5-cyano-3-(2-ethoxy-3-pyridyl)-1-(4-methoxyphenyl)sulfonyl-2-oxo-indolin-3-yl]-4-[1-(oxetan-3-yl)-4-piperidyl]piperazine-1-carboxamide] | 10 to 100 | +++ (>75) |  |
| COc1ccc(S(=O)(=O)N2C(=O)[C@@](NC(=O)N3CCN(C4CCN(C5COC5)CC4)CC3)(c3cccnc3OC)c3cc(C#N)ccc32)cc1 [Example 34, N-[(3S)-5-cyano-1-(4-methoxyphenyl)sulfonyl-3-(2-methoxy-3-pyridyl)-2-oxo-indolin-3-yl]-4-[1-(oxetan-3-yl)-4-piperidyl]piperazine-1-carboxamide] | 10 to 100 | ++ (25-75) |  |
| COc1ccc(S(=O)(=O)N2C(=O)[C@@](NC(=O)N3CCN(C4CCN(C5COC5C)CC4)CC3)(c3cccnc3OC)c3cc(C#N)ccc32)c(OC)c1.O=C(O)C(F)(F)F.O=C(O)C(F)(F)F (stereo partly drawn) [Example 53, N—((S)-5-cyano-1-((2,4-dimethoxyphenyl)sulfonyl)-3-(2-methoxypyridin-3-yl)-2-oxoindolin-3-yl)-4-(1-(2-methyloxetan-3-yl)piperidin-4-yl)piperazine-1-carboxamide, 2 trifluoroacetic acid] |  | ++ (25-75) | 1 to 10 |
| CCOc1ncccc1[C@]1(NC(=O)N2CCN(C3CCN(C4(C)COC4)CC3)CC2)C(=O)N(S(=O)(=O)c2ccc(OC)cc2OC)c2ccc(C#N)cc21 [Example 51, (S)—N-(5-cyano-1-((2,4-dimethoxyphenyl)sulfonyl)-3-(2-ethoxypyridin-3-yl)-2-oxoindolin-3-yl)-4-(1-(3-methyloxetan-3-yl)piperidin-4-yl)piperazine-1-carboxamide] | 1 to 10 | +++ (>75) |  |
| CCOc1ncccc1[C@]1(NC(=O)N2CCN(C3CCN(C4COC4)CC3)CC2)C(=O)N(S(=O)(=O)c2ccc(F)cc2OC)c2ccc(C#N)cc21 [Example 26, N-[(3S)-5-cyano-3-(2-ethoxy-3-pyridyl)-1-(4-fluoro-2-methoxy-phenyl)sulfonyl-2-oxo-indolin-3-yl]-4-[1-(oxetan-3-yl)-4-piperidyl]piperazine-1-carboxamide] | 1 to 10 | +++ (>75) |  |
| CCOc1ccc(OC)cc1[C@]1(NC(=O)N2CCN(C3CCN(C4COC4)CC3)CC2)C(=O)N(S(=O)(=O)c2ccc(OC)cn2)c2ccc(C#N)cc21 [Example 32, N-[(3S)-5-cyano-3-(2-ethoxy-5-methoxy-phenyl)-1-[(5-methoxy-2-pyridyl)sulfonyl]-2-oxo-indolin-3-yl]-4-[1-(oxetan-3-yl)-4-piperidyl]piperazine-1-carboxamide] | 10 to 100 | +++ (>75) |  |
| COc1cc(C)ccc1S(=O)(=O)N1C(=O)[C@@](NC(=O)N2CCN(C3CCN(C4COC4)CC3)CC2)(c2cccnc2OC)c2cc(C#N)ccc21 [Example 46, N-[(3S)-5-cyano-1-(2-methoxy-4-methyl-phenyl)sulfonyl-3-(2-methoxy-3-pyridyl)-2-oxo-indolin-3-yl]-4-[1-(oxetan-3-yl)-4-piperidyl]piperazine-1-carboxamide] | 10 to 100 | +++ (>75) |  |

The next lines start with results.

| Ki [1] [nM] | Ki(h-V1a)/Ki(h-V1b) [2] | Compound | Ki [3] [nM] |
| --- | --- | --- | --- |
| 1 to 10 | +++ (>75) | CCOc1ncccc1[C@]1(NC(=O)N2CCN(C3CCN(C4COC4)CC3)CC2)C(=O)N(S(=O)(=O)c2ccc(OC)cn2)c2ccc(C#N)cc21 [Example 25, N-[(3S)-5-cyano-3-(2-ethoxy-3-pyridyl)-1-[(5-methoxy-2-pyridyl)sulfonyl]-2-oxo-indolin-3-yl]-4-[1-(oxetan-3-yl)-4-piperidyl]piperazine-1-carboxamide] |  |
| < 1 | ++ (25-75) | COc1ccc(S(=O)(=O)N2C(=O)[C@@](NC(=O)N3CCN(C4CCN(C5COC5)CC4)CC3)(c3cc(OC)ccc3OC)c3cc(C#N)ccc32)c(OC)c1 [Example 54, (S)—N-(5-cyano-3-(2,5-dimethoxyphenyl)-1-((2,4-dimethoxyphenyl)sulfonyl)-2-oxoindolin-3-yl)-4-(1-(oxetan-3-yl)piperidin-4-yl)piperazine-1-carboxamide] |  |
| < 1 | +++ (>75) | CCOc1ncccc1[C@]1(NC(=O)N2CCN(C3CCN(C4COC4)CC3)CC2)C(=O)N(S(=O)(=O)c2ccc(OC)cc2OC)c2cc(F)c(C#N)cc21 [Example 7A, (S)—N-(5-cyano-1-((2,4-dimethoxyphenyl)sulfonyl)-3-(2-ethoxypyridin-3-yl)-6-fluoro-2-oxoindolin-3-yl)-4-(1-(oxetan-3-yl)piperidin-4-yl)piperazine-1-carboxamide] |  |
| 1 to 10 | + (10-<25) | COc1ccc(S(=O)(=O)N2C(=O)[C@@](NC(=O)N3CCN(C4CCN(C5COC5)CC4)CC3)(c3cccnc3OC)c3cc(C#N)ccc32)nc1 [Example 29, N-[(3S)-5-cyano-3-(2-methoxy-3-pyridyl)-1-[(5-methoxy-2-pyridyl)sulfonyl]-2-oxo-indolin-3-yl]-4-[1-(oxetan-3-yl)-4-piperidyl]piperazine-1-carboxamide] |  |
| < 1 | +++ (>75) | COc1cc(F)ccc1S(=O)(=O)N1C(=O)[C@@](NC(=O)N2CCC(C3CCN(C4COC4)CC3)CC2)(c2cccnc2OC)c2cc(C#N)ccc21 [Example 37, N-[(3S)-5-cyano-1-(4-fluoro-2-methoxy-phenyl)sulfonyl-3-(2-methoxy-3-pyridyl)-2-oxo-indolin-3-yl]-4-[1-(oxetan-3-yl)-4-piperidyl]piperidine-1-carboxamide] |  |
| 1 to 10 | +++ (>75) | CCOc1ccc(OC)cc1[C@]1(NC(=O)N2CCN(C3CCN(C4COC4)CC3)CC2)C(=O)N(S(=O)(=O)c2ccc(F)cc2OC)c2ccc(C#N)cc21 [Example 35, N-[(3S)-5-cyano-3-(2-ethoxy-5-methoxy-phenyl)-1-(4-fluoro-2-methoxy-phenyl)sulfonyl-2-oxo-indolin-3-yl]-4-[1-(oxetan-3-yl)-4-piperidyl]piperazine-1-carboxamide] |  |
| 1 to 10 | + (10-<25) | COc1ncccc1[C@]1(NC(=O)N2CCC(C3CCN(C4COC4)CC3)CC2)C(=O)N(S(=O)(=O)c2ccc(F)cc2)c2ccc(C#N)cc21 [Example 40, N-[(3S)-5-cyano-1-(4-fluorophenyl)sulfonyl-3-(2-methoxy-3-pyridyl)-2-oxo-indolin-3-yl]-4-[1-(oxetan-3-yl)-4-piperidyl]piperidine-1-carboxamide] |  |
| 1 to 10 | +++ (>75) | COc1ccc(S(=O)(=O)N2C(=O)[C@@](NC(=O)N3CCN(C4CCN(C5COC5)CC4)CC3)(c3cccnc3OC(C)C)c3cc(C#N)ccc32)c(OC)c1 [Example 44, N-[(3S)-5-cyano-1-(2,4-dimethoxyphenyl)sulfonyl-3-(2-isopropoxy-3-pyridyl)-2-oxo-indolin-3-yl]-4-[1-(oxetan-3-yl)-4-piperidyl]piperazine-1-carboxamide] |  |
| < 1 | + (10-<25) | COc1ccc(S(=O)(=O)N2C(=O)[C@@](NC(=O)N3CCC(C4CCN(C5COC5)CC4)CC3)(c3cc(OC)ccc3OC)c3cc(C#N)ccc32)c(OC)c1 [Example 55, (S)—N-(5-cyano-3-(2,5-dimethoxyphenyl)-1-((2,4-dimethoxyphenyl)sulfonyl)-2-oxoindolin-3-yl)-1′-(oxetan-3-yl)-[4,4′-bipiperidine]-1-carboxamide] |  |
| < 1 | +++ (>75) | COc1ccc(S(=O)(=O)N2C(=O)[C@@](NC(=O)N3CCC(C4CCN(C5COC5)CC4)CC3)(c3cccnc3OC)c3cc(C#N)ccc32)c(OC)c1 [Example 27, N-[(3S)-5-cyano-1-(2,4-dimethoxyphenyl)sulfonyl-3-(2-methoxy-3-pyridyl)-2-oxo-indolin-3-yl]-4-[1-(oxetan-3-yl)-4-piperidyl]piperidine-1-carboxamide] |  |
| 1 to 10 | +++ (>75) | CCOc1ccc(OC)cc1[C@]1(NC(=O)N2CCN(C3CCN(C4COC4)CC3)CC2)C(=O)N(S(=O)(=O)c2ccc(OC)cc2OC)c2ccc(C#N)cc21 [Example 33, N-[(3S)-5-cyano-1-(2,4-dimethoxyphenyl)sulfonyl-3-(2-ethoxy-5-methoxy-phenyl)-2-oxo-indolin-3-yl]-4-[1-(oxetan-3-yl)-4-piperidyl]piperazine-1-carboxamide] |  |
